Patent US6645970B2, “Indolylmaleimide derivatives” (Novartis AG, priority 2000, dated 2003)
One block for each molecule: values may come before it.

Legend:
[1] = tested on: Jurkat cells transfected with a human interleukin-2 promoter/reporter gene construct; assay: CD28 costimulation assay; assay type: cell-based; settings: stimulated Jurkat cells, IL-2 promoter luciferase reporter, 5.5 hours
Human recombinant PKCθ = Human recombinant PKCθ (Homo sapiens, UniProt Q04759); assay: Protein Kinase C θ Assay; assay type: biochemical; settings: 10 μM ATP
Excerpt: Human recombinant PKCθ is used under the assay conditions as described above.

[2] = tested on: spleen cells from CBA and BALB/c mice; assay: Allogeneic Mixed Lymphocyte Reaction (MLR); assay type: cell-based; settings: Mus musculus, two-way MLR, 3H-thymidine incorporation
Experimental: The two-way MLR is performed according to standard procedures (J. Immunol. Methods, 1973, 2, 279 and Meo T. et al., Immunological Methods, New York, Academic Press, 1979, 227-39). Briefly, spleen cells from CBA and BALB/c mice (1.6×10^5 cells from each strain per well in flat bottom tissue culture microtiter plates, 3.2×10^5 in total) are incubated in RPMI medium containing 10% FCS, 100 U/ml penicillin, 100 μg/mI streptomycin (Gibco BRL, Basel, Switzerland), 50 μM 2-mercaptoethanol (Fluka, Buchs, Switzerland) and serially diluted compounds. Seven three-fold dilution steps in duplicates per test compound are performed. After four days of incubation 1 μCi ^3H-thymidine is added. Cells are harvested after an additional five-hour incubation period, and incorporated ^3H-thymidine is determined according to standard procedures. Background values (low control) of the MLR are the proliferation of BALB/c cells alone. Low controls are subtracted from all values. High controls without any sample are taken as 100% proliferation. Percent inhibition by the samples is calculated, and the concentrations required for 50% inhibition (IC50 values) are determined.

Human recombinant PKCδ = target: T1, Human recombinant PKCδ (Homo sapiens, UniProt Q05655); assay: Protein Kinase Cδ Assay; assay type: biochemical; settings: 10 μM ATP
T1 construct: purchased Oxford Biomedical Research
Experimental: (§1) The compounds of formula I are tested for their activity on different PKC isoforms according to a published method (D. Geiges et al. Biochem. Pharmacol. 1997;53:865-875) The assay is performed in a 96-well polypropylene microtiterplate (Costar 3794) that has been previously siliconized with Sigmacote (Sigma SL-2). The reaction mixture (50 μl) contains 10 μl the relevant PKC isozyme together with 25 μl of the test compound and 15 μl of a mix solution that contains 200 μg/ml protamine sulfate, 10 mM Mg(NO3)2, 10 μM ATP (Boehringer 519987) and 3750 Bq of ^33P-ATP (Hartmann Analytic SFC301, 110TBq/mmol) in 20 mM Tris-buffer pH 7.4+0.1% BSA. Incubation is performed for 15 min at 32° C. in a microtiterplate shaking incubator (Biolabo Scientific Instruments). Reaction is stopped by adding 10 μl of 0.5 M Na2EDTA, pH 7.4. 50 μl of mixture are pipetted onto a pre-wetted phosphocellulose paper (Whatmann 3698-915) under gentle pressure. Non-incorporated ATP is washed away with 100 μl bi-dist H2O. The paper is washed twice in 0.5% H3PO4 for 15 min followed by 5 min in EtOH. Thereafter the paper is dryed and placed in an omnifilter (Packard 6005219), and overlayed with 10 μl/well of Microscint-O (Packard 6013611) before counting in a Topcount radioactivity counter (Packard). […] IC50 value are calculated from the graph by sigmoidal curve fitting. […]

Human recombinant PKCε = target: T2, Human recombinant PKCε (Homo sapiens, UniProt Q02156); assay: Protein Kinase Cε Assay; assay type: biochemical; settings: 10 μM ATP
T2 construct: purchased Oxford Biomedical Research
T2 sequence (Q02156 1-737): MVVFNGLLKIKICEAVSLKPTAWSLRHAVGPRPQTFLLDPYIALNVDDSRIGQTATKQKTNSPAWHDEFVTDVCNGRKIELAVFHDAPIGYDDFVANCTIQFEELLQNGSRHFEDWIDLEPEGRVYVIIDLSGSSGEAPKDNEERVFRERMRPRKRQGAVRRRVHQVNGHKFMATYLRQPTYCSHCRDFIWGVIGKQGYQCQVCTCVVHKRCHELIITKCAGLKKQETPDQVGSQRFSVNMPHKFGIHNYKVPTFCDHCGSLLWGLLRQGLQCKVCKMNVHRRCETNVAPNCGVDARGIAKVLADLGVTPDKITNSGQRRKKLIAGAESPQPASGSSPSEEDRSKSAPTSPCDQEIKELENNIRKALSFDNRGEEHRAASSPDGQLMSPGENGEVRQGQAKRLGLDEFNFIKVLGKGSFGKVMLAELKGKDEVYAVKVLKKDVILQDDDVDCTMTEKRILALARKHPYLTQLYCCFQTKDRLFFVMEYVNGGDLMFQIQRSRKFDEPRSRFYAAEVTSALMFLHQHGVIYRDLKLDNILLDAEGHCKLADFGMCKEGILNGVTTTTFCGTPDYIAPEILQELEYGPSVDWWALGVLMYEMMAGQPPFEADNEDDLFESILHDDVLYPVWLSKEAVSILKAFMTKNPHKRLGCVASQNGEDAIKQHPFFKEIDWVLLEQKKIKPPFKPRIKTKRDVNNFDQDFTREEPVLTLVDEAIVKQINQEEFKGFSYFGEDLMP
Experimental: as §1

Human recombinant PKCβ1 = target: T3, Human recombinant PKCβ1 (Homo sapiens, UniProt P05771); assay: Protein Kinase Cβ1 Assay; assay type: biochemical; settings: human recombinant PKCβ1, 10 μM ATP
T3 construct: purchased Oxford Biomedical Research
Experimental: as §1

Human recombinant PKCη = target: T4, Human recombinant PKCη (Homo sapiens, UniProt P24723); assay: Protein Kinase Cη Assay; assay type: biochemical; settings: 10 μM ATP
T4 construct: purchased PanVera
Experimental: as §1

Human recombinant PKCα = target: T5, Human recombinant PKCα (Homo sapiens, UniProt P17252); assay: Protein Kinase Cα Assay; assay type: biochemical; settings: 10 μM ATP
T5 construct: purchased Oxford Biomedical Research
Experimental: The compounds of formula I are tested for their activity on different PKC isoforms according to a published method (D. Geiges et al. Biochem. Pharmacol. 1997;53:865-875) The assay is performed in a 96-well polypropylene microtiterplate (Costar 3794) that has been previously siliconized with Sigmacote (Sigma SL-2). The reaction mixture (50 μl) contains 10 μl the relevant PKC isozyme together with 25 μl of the test compound and 15 μl of a mix solution that contains 200 μg/ml protamine sulfate, 10 mM Mg(NO3)2, 10 μM ATP (Boehringer 519987) and 3750 Bq of ^33P-ATP (Hartmann Analytic SFC301, 110TBq/mmol) in 20 mM Tris-buffer pH 7.4+0.1% BSA. Incubation is performed for 15 min at 32° C. in a microtiterplate shaking incubator (Biolabo Scientific Instruments). Reaction is stopped by adding 10 μl of 0.5 M Na2EDTA, pH 7.4. 50 μl of mixture are pipetted onto a pre-wetted phosphocellulose paper (Whatmann 3698-915) under gentle pressure. Non-incorporated ATP is washed away with 100 μl bi-dist H2O. The paper is washed twice in 0.5% H3PO4 for 15 min followed by 5 min in EtOH. Thereafter the paper is dryed and placed in an omnifilter (Packard 6005219), and overlayed with 10 μl/well of Microscint-O (Packard 6013611) before counting in a Topcount radioactivity counter (Packard). […] IC50 value are calculated from the graph by sigmoidal curve fitting.

[3] = tested on: Rat Heart transplantation (graft survival); assay: Rat Heart transplantation; assay type: in vivo; settings: Lewis and BN strains, 30 mg/kg/day
Experimental: The strain combination used: Male Lewis (RT^1 haplotype) and BN (RT^1 haplotype). The animals are anaesthetised using inhalational isofluorane. […] The aorta is ligated and divided distal to the first branch and the brachiocephalic trunk is divided at the first bifurcation. The left pulmonary artery is ligated and divided and the right side divided but left open. All other vessels are dissected free, ligated and divided and the donor heart is removed into iced saline.
The recipient is prepared by dissection and cross-clamping of the infra-renal abdominal aorta and vena cava. The graft is implanted with end-to-side anastomoses, using 10/0 monofilament suture, between the donor brachiocephalic trunk and the recipient aorta and the donor right pulmonary artery to the recipient vena cava. The clamps are removed, the graft tethered retroabdominally, the abdominal contents washed with warm saline and the animal is closed and allowed to recover under a heating lamp. Graft survival is monitored by daily palpation of the beating donor heart through the abdominal wall. Rejection is considered to be complete when heart beat stops. Increases of graft survival are obtained in animals treated with a compound of formula I administered orally at a daily dose of 1 to 30 mg/kg.

T1 sequence (Q05655 whole entry): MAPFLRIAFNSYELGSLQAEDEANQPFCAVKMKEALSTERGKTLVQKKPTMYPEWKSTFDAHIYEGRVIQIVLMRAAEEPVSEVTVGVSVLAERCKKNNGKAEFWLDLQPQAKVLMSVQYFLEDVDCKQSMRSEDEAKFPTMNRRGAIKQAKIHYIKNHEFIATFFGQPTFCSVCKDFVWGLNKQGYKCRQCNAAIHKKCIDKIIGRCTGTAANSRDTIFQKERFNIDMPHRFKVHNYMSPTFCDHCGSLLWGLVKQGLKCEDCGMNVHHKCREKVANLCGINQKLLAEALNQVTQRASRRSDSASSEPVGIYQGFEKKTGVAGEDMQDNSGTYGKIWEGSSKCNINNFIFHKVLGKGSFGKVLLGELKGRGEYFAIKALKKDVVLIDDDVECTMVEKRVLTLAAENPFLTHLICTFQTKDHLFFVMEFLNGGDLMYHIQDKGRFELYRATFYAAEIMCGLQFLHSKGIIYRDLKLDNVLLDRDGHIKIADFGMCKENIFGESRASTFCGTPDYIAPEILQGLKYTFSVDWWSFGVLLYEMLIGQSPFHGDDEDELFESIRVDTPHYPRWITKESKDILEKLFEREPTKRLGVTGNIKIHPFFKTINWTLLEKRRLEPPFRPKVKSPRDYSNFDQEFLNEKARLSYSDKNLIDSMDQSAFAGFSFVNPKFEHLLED
Human recombinant PKCθ, sequence (Q04759 whole entry): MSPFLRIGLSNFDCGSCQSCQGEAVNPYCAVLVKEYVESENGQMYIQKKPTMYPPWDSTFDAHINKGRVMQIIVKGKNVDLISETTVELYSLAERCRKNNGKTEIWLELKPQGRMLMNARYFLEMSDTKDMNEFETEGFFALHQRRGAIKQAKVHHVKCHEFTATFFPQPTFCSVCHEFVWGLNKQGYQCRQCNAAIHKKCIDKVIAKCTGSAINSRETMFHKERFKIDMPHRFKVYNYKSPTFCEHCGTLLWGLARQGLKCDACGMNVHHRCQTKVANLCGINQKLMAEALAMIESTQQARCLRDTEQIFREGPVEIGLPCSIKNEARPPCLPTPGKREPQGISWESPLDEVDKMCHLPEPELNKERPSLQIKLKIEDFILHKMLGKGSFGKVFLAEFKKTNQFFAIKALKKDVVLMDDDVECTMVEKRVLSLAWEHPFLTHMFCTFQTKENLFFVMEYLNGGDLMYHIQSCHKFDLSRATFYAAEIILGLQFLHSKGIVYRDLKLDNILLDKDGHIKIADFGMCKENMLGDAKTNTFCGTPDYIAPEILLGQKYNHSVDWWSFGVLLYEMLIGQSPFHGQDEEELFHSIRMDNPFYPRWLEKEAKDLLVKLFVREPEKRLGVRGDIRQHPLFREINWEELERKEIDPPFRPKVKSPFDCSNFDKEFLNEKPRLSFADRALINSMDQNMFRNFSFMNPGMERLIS
T3 sequence (P05771 whole entry): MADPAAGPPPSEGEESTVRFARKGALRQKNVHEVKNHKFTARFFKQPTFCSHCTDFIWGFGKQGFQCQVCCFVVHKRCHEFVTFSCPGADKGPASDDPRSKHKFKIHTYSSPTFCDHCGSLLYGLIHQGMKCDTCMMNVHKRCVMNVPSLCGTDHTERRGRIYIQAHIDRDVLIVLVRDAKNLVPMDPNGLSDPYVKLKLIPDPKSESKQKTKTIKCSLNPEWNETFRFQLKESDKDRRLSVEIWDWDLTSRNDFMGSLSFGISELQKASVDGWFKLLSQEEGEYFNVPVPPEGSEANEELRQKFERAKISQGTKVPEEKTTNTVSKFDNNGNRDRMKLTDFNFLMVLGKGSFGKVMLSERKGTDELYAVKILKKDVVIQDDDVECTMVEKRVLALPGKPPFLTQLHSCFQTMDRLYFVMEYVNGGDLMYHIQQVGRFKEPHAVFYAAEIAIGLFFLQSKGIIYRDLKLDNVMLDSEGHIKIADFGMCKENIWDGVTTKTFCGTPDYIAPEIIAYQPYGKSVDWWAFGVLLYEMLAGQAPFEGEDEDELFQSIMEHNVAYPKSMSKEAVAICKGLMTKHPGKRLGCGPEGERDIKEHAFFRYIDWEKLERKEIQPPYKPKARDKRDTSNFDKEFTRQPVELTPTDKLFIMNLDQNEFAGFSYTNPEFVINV
T4 sequence (P24723 whole entry): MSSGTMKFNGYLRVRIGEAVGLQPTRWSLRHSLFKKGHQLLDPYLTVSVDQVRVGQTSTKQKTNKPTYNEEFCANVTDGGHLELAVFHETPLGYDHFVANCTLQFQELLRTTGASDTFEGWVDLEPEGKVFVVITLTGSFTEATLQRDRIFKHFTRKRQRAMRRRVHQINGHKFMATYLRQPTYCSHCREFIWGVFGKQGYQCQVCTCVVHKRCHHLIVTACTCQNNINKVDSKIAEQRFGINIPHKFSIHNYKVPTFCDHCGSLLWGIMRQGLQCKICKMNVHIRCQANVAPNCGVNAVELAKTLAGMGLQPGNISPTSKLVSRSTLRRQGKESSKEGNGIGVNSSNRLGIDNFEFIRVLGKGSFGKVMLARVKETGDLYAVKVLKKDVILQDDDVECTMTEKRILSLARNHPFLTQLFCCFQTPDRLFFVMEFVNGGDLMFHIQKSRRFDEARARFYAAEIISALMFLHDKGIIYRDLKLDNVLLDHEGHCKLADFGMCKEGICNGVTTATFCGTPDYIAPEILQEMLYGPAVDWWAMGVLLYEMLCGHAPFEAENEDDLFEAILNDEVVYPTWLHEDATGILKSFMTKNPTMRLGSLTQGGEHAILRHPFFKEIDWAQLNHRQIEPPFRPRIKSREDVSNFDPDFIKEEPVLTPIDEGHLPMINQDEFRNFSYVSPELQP

SMILES: CN1CCN(c2nc(C3=C(c4c[nH]c5ccccc45)C(=O)NC3=O)c3ccccc3n2)CC1 [Example 56, 3-(1.H.-indol-3-yl)-4-[2-(4-methyl-piperazin-1-yl)-quinazolin-4-yl]-pyrrole-2,5-dione]
IC50 [1]: 42 ± 12 nM | IC50 (Human recombinant PKCθ): < 10 nM | IC50 [2]: 168 ± 20 nM

SMILES: Cc1cccc2c(C3=C(c4nc(N5CCN(C)CC5)nc5ccccc45)C(=O)NC3=O)c[nH]c12 [Example 139]
IC50 (Human recombinant PKCε): 20 ± 7 nM

SMILES: Cn1cc(C2=C(c3nc(N4CCNC5(CC5)C4)nc4ccccc34)C(=O)NC2=O)c2ccccc21 [Example 100]
IC50 (Human recombinant PKCα): 39 ± 15 nM | graft survival [3]: significantly increases the graft survival

Continued, values first:

IC50 (Human recombinant PKCδ): 18 ± 8 nM
SMILES: CN1CCN(c2cc3ccccc3c(C3=C(c4c[nH]c5ccccc45)C(=O)NC3=O)n2)CC1 [Example 181, 3-(1.H.-Indol-3-yl)-4-[3-(4-methyl-piperazin-1-yl)-isoquinolin-1-yl]-pyrrole-2,5-dione]

IC50 (Human recombinant PKCβ1): 8 ± 2 nM
SMILES: CN1CCN(c2cc(C3=C(c4c[nH]c5ccccc45)C(=O)NC3=O)c3ccccc3n2)CC1 [Example 163, 3-(1.H.-indol-3-yl)-4-[2-(4-methyl-piperazin-1-yl)-quinolin-4-yl]-pyrrole-2,5-dione]

IC50 (Human recombinant PKCη): 50 ± 9 nM
SMILES: CC(C)N1CCN(c2nc(C3=C(c4c[nH]c5ccccc45)C(=O)NC3=O)c3ccccc3n2)CC1 [Example 85]
